Test results published in ChEMBL document CHEMBL4800729 (2021).

Tests used:
[1] = biological target: Phosphatidylinositol 4,5-bisphosphate 3-kinase catalytic subunit gamma isoform (Homo sapiens) (UniProt P48736); experiment: PI3 Kinase (p120g)(h) Millipore kinase panel; settings: Compound concentration 1.0 uM
[2] = biological target: Serine/threonine-protein kinase 17A (Homo sapiens) (UniProt Q9UEE5); experiment: DRAK1(h) Millipore kinase panel; settings: Compound concentration 1.0 uM
[3] = biological target: Mitogen-activated protein kinase 13 (Homo sapiens) (UniProt O15264); experiment: SAPK4(h) Millipore kinase panel; settings: Compound concentration 1.0 uM
[4] = biological target: Ephrin type-A receptor 5 (Homo sapiens) (UniProt P54756); experiment: EphA5(h) Millipore kinase panel; settings: Compound concentration 1.0 uM
[5] = biological target: Insulin-like growth factor 1 receptor (Homo sapiens) (UniProt P08069); experiment: IGF-1R(h), activated Millipore kinase panel; settings: Compound concentration 1.0 uM
[6] = biological target: Muscarinic acetylcholine receptor M5 (Homo sapiens) (UniProt P08912); settings: Compound concentration 10.0 uM
[7] = biological target: Serine/threonine-protein kinase Nek3 (Homo sapiens) (UniProt P51956); experiment: NEK3(h) Millipore kinase panel; settings: Compound concentration 1.0 uM
[8] = biological target: 5-hydroxytryptamine receptor 2B (Homo sapiens, UniProt P41595); experiment: GPCRScan assay: inhibition of 5-HT2B; parameters: radioligand conc. used [nm] 1.0 – 2.0, parental cells stable HEK
[9] = biological target: Aurora kinase C (Homo sapiens) (UniProt Q9UQB9); experiment: Aurora_C(h) Millipore kinase panel; settings: Compound concentration 1.0 uM
[10] = biological target: Interleukin-1 receptor-associated kinase 4 (Homo sapiens) (UniProt Q9NWZ3); experiment: IRAK4(h) Millipore kinase panel; settings: Compound concentration 1.0 uM
[11] = biological target: Serine/threonine-protein kinase 16 (Homo sapiens) (UniProt O75716); experiment: STK16(h) Millipore kinase panel; settings: Compound concentration 1.0 uM
Chain of Serine/threonine-protein kinase 16 (Homo sapiens) (O75716 whole entry): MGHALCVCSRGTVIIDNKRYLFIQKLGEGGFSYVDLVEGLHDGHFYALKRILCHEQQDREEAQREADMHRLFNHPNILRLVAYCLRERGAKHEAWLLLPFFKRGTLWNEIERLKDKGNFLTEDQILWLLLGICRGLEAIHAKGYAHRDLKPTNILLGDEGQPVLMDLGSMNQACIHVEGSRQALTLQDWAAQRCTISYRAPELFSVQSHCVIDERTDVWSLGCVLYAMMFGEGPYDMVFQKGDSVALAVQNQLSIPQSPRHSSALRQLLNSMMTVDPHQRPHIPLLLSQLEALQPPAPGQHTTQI

[12] = biological target: 5'-AMP-activated protein kinase catalytic subunit alpha-2 (Homo sapiens) (UniProt P54646); experiment: AMPKalpha2(h) Millipore kinase panel; settings: Compound concentration 1.0 uM
[13] = biological target: Wee1-like protein kinase (Homo sapiens) (UniProt P30291); experiment: WEE1(h) Millipore kinase panel; settings: Compound concentration 1.0 uM
[14] = biological target: Protein kinase C beta type (Homo sapiens) (UniProt P05771); experiment: PKCbetaII(h) Millipore kinase panel; settings: Compound concentration 1.0 uM
[15] = biological target: Tyrosine-protein kinase Mer (Homo sapiens) (UniProt Q12866); experiment: Mer(h) Millipore kinase panel; settings: Compound concentration 1.0 uM
[16] = biological target: Dual specificity protein kinase CLK2 (Homo sapiens) (UniProt P49760); experiment: CLK2(h) Millipore kinase panel; settings: Compound concentration 1.0 uM
[17] = biological target: MAPK/MAK/MRK overlapping kinase (Homo sapiens) (UniProt Q9UQ07); experiment: MOK(h) Millipore kinase panel; settings: Compound concentration 1.0 uM
Chain of MAPK/MAK/MRK overlapping kinase (Homo sapiens) (Q9UQ07 whole entry): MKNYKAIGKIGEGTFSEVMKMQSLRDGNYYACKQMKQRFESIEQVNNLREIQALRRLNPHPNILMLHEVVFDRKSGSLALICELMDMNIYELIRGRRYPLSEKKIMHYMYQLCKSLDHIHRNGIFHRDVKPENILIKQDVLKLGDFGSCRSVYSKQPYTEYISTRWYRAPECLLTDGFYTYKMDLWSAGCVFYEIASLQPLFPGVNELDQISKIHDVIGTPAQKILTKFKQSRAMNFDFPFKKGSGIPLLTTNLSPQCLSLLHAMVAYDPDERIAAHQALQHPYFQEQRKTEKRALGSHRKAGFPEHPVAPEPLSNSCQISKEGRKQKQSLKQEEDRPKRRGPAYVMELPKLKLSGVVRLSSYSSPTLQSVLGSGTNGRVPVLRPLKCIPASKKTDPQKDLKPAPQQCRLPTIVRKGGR

[18] = biological target: Dual specificity tyrosine-phosphorylation-regulated kinase 1A (Homo sapiens) (UniProt Q13627); experiment: DYRK1A(h) Millipore kinase panel; settings: Compound concentration 1.0 uM
[19] = biological target: Sigma non-opioid intracellular receptor 1 (Homo sapiens) (UniProt Q99720); settings: Compound concentration 10.0 uM
[20] = biological target: Myosin light chain kinase 2, skeletal/cardiac muscle (Homo sapiens) (UniProt Q9H1R3); experiment: MYLK2(h) Millipore kinase panel; settings: Compound concentration 1.0 uM
[21] = biological target: Purinergic P2Y (Rattus norvegicus) (UniProt O35811+Q9EPX4+P49651+Q63371+P41232+O35881+Q6GUG4); experiment: Inhibition of Purinergic P2Y at compound concentration of 10.0 uM in the Eurofins-Panlabs radioligand binding assay (Eurofins_assay_268820); format: protein assay; parameters: ligand concentration 0.1 nM; settings: Compound concentration 10.0 uM
[22] = biological target: Serine/threonine-protein kinase Nek9 (Homo sapiens) (UniProt Q8TD19); experiment: NEK9(h) Millipore kinase panel; settings: Compound concentration 1.0 uM
[23] = biological target: Homeodomain-interacting protein kinase 3 (Homo sapiens) (UniProt Q9H422); experiment: HIPK3(h) Millipore kinase panel; settings: Compound concentration 1.0 uM
[24] = biological target: Mast/stem cell growth factor receptor Kit (Homo sapiens) (UniProt P10721); experiment: cKit(h) Millipore kinase panel; settings: Compound concentration 1.0 uM
Chain of Mast/stem cell growth factor receptor Kit (Homo sapiens) (P10721 whole entry): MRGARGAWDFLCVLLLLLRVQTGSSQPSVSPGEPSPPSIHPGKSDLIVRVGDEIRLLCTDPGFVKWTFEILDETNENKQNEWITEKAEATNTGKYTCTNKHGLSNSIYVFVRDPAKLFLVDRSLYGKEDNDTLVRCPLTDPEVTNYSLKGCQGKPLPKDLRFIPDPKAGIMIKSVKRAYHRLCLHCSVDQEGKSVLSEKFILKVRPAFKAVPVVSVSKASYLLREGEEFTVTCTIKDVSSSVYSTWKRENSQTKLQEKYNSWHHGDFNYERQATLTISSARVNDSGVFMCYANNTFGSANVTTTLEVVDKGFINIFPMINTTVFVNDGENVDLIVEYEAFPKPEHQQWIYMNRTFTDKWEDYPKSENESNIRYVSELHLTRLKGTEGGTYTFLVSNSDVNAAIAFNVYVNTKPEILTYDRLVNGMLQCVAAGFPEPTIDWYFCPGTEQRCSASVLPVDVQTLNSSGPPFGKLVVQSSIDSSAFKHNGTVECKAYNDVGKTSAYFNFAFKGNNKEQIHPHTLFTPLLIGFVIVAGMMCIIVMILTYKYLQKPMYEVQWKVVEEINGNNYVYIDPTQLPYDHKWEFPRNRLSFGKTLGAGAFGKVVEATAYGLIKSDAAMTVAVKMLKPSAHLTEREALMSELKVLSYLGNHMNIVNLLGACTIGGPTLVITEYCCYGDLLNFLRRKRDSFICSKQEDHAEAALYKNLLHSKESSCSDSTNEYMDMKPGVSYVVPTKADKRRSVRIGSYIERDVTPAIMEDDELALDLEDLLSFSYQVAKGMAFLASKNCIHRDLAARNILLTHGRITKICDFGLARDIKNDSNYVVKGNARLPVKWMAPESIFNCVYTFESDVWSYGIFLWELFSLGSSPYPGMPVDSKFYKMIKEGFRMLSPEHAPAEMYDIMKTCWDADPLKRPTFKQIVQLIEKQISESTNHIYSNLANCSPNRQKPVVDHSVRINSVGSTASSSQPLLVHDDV

[25] = biological target: 5-hydroxytryptamine receptor 3A (Homo sapiens) (UniProt P46098); settings: Compound concentration 10.0 uM
[26] = biological target: Cyclin-dependent kinase 4/cyclin D (Homo sapiens) (UniProt P11802+P24385+P30281+P30279); experiment: CDK4/cyclinD Millipore kinase panel; format: protein-complex assay; settings: Compound concentration 1.0 uM
[27] = biological target: Tyrosine-protein kinase Fgr (Homo sapiens) (UniProt P09769); experiment: Fgr(h) Millipore kinase panel; settings: Compound concentration 1.0 uM
[28] = biological target: Mitogen-activated protein kinase 1 (Homo sapiens) (UniProt P28482); experiment: MAPK1(h) Millipore kinase panel; settings: Compound concentration 1.0 uM
[29] = biological target: CDK17/Cyclin-Y (Homo sapiens) (UniProt Q00537+Q8ND76); experiment: CDK17/cyclinY(h) Millipore kinase panel; format: protein-complex assay; settings: Compound concentration 1.0 uM
[30] = biological target: MAP kinase-activated protein kinase 3 (Homo sapiens) (UniProt Q16644); experiment: MAPKAP-K3(h) Millipore kinase panel; settings: Compound concentration 1.0 uM
[31] = biological target: Thromboxane-A synthase (Homo sapiens) (UniProt P24557); experiment: Inhibition of Thromboxane Synthase at compound concentration of 10.0 uM in the Eurofins-Panlabs enzyme assay (Eurofins_assay_194020); parameters: substrate with concentration; settings: Compound concentration 10.0 uM
[32] = biological target: Histamine H3 receptor (Homo sapiens) (UniProt Q9Y5N1); settings: Compound concentration 10.0 uM
[33] = biological target: Dual specificity protein kinase CLK1 (Homo sapiens) (UniProt P49759); experiment: CLK1(h) Millipore kinase panel; settings: Compound concentration 1.0 uM
[34] = biological target: Death-associated protein kinase 3 (Homo sapiens) (UniProt O43293); experiment: ZIPK(h) Millipore kinase panel; settings: Compound concentration 1.0 uM
[35] = biological target: CDK3/cyclin E (Homo sapiens) (UniProt P24864+O96020+Q00526); experiment: CDK3/cyclinE(h) Millipore kinase panel; format: protein-complex assay; settings: Compound concentration 1.0 uM
[36] = biological target: Transient receptor potential cation channel subfamily M member 7 (Homo sapiens) (UniProt Q96QT4); experiment: ChaK1(h) Millipore kinase panel; settings: Compound concentration 1.0 uM
[37] = biological target: MAP/microtubule affinity-regulating kinase 4 (Homo sapiens) (UniProt Q96L34); experiment: MARK4(h) Millipore kinase panel; settings: Compound concentration 1.0 uM
[38] = biological target: Tribbles homolog 2 (Homo sapiens) (UniProt Q92519); experiment: TRB2(h) Millipore kinase panel; settings: Compound concentration 1.0 uM
[39] = biological target: Cannabinoid receptor 2 (Homo sapiens) (UniProt P34972); settings: Compound concentration 10.0 uM
Chain of Cannabinoid receptor 2 (Homo sapiens) (P34972 whole entry): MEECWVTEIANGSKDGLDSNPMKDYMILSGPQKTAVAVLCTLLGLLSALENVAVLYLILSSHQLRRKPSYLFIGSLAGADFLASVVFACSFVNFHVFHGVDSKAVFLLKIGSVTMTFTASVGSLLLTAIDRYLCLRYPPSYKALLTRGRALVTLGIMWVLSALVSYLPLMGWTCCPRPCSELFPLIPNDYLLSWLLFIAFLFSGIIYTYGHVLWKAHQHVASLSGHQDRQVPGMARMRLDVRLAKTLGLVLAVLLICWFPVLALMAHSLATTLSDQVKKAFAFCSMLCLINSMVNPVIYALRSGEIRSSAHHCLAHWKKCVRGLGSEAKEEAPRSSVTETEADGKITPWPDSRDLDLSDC

[40] = biological target: Protein-tyrosine kinase 2-beta (Homo sapiens) (UniProt Q14289); experiment: Pyk2(h) Millipore kinase panel; settings: Compound concentration 1.0 uM
[41] = biological target: Activin receptor type-1B (Homo sapiens) (UniProt P36896); experiment: Alk4(h) Millipore kinase panel; settings: Compound concentration 1.0 uM
[42] = biological target: MAP/microtubule affinity-regulating kinase 3 (Homo sapiens) (UniProt P27448); experiment: MARK3(h) Millipore kinase panel; settings: Compound concentration 1.0 uM
Chain of MAP/microtubule affinity-regulating kinase 3 (Homo sapiens) (P27448 whole entry, looked up): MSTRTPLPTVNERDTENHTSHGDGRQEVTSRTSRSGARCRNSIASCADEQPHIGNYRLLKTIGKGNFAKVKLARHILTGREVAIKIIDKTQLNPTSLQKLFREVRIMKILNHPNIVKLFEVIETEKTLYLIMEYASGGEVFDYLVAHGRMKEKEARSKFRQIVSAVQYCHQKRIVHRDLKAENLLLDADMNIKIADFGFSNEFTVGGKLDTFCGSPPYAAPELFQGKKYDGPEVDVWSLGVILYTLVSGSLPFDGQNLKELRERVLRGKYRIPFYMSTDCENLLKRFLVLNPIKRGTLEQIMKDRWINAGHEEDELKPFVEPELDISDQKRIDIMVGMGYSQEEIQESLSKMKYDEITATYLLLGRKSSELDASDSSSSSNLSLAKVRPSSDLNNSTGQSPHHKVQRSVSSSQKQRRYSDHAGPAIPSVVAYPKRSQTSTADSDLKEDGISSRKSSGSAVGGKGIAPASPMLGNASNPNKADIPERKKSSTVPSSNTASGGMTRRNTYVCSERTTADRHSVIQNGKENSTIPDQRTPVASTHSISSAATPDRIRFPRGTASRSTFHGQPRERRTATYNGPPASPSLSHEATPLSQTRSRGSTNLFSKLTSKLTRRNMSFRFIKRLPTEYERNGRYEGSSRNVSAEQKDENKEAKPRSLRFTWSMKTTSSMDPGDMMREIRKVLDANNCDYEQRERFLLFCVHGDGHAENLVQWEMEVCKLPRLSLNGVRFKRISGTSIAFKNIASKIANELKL

[43] = biological target: Myosin-IIIb (Homo sapiens) (UniProt Q8WXR4); experiment: MYO3B(h) Millipore kinase panel; settings: Compound concentration 1.0 uM
[44] = biological target: Dual specificity mitogen-activated protein kinase kinase 1 (Homo sapiens) (UniProt Q02750); experiment: MEK1(h) Millipore kinase panel; settings: Compound concentration 1.0 uM
[45] = biological target: Epidermal growth factor receptor (Homo sapiens) (UniProt P00533); experiment: EGFR(h) Millipore kinase panel; settings: Compound concentration 1.0 uM
Chain of Epidermal growth factor receptor (Homo sapiens) (P00533 whole entry): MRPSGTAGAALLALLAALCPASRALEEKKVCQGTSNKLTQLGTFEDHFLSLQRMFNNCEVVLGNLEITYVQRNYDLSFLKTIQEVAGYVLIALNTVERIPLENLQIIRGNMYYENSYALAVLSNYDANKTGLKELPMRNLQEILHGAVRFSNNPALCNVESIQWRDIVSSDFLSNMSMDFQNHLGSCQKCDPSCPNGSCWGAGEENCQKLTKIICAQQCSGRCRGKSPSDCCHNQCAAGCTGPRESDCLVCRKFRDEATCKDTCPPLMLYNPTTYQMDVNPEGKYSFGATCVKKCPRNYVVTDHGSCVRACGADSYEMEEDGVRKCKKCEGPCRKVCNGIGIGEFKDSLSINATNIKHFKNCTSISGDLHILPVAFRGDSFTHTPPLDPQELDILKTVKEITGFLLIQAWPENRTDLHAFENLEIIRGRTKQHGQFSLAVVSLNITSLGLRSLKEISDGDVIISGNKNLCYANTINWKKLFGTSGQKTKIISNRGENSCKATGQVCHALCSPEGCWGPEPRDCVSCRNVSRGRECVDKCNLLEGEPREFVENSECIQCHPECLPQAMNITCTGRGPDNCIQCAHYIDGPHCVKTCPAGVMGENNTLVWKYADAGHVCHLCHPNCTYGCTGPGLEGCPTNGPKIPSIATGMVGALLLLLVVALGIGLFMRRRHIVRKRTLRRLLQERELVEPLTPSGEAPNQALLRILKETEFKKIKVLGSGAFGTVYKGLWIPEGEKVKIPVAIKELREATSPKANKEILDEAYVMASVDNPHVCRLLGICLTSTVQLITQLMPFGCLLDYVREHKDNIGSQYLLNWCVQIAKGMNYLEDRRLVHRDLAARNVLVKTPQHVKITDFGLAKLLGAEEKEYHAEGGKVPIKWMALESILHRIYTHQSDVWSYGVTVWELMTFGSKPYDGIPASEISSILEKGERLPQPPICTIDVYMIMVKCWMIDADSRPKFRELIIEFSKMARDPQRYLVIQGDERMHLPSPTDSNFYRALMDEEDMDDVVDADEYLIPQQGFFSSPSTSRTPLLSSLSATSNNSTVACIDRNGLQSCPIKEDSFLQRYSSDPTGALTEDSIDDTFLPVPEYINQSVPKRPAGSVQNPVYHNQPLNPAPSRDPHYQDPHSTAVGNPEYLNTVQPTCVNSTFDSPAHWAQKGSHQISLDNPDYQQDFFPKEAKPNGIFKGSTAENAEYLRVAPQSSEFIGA

[46] = biological target: Ribosomal protein S6 kinase alpha-2 (Homo sapiens) (UniProt Q15349); experiment: Rsk3(h) Millipore kinase panel; settings: Compound concentration 1.0 uM
[47] = biological target: Beta-3 adrenergic receptor (Homo sapiens) (UniProt P13945); settings: Compound concentration 10.0 uM
Chain of Beta-3 adrenergic receptor (Homo sapiens) (P13945 whole entry, looked up): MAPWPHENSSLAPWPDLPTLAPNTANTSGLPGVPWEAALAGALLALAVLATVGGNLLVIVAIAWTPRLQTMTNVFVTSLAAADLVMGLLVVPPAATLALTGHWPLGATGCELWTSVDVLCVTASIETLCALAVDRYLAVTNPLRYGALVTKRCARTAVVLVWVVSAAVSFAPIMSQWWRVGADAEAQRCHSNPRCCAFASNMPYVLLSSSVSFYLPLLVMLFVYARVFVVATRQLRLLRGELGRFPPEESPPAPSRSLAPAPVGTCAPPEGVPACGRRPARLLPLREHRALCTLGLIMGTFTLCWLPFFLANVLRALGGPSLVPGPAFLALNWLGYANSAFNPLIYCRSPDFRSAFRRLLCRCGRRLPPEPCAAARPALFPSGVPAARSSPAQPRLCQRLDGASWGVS

[48] = biological target: CDK18/Cyclin Y (Homo sapiens) (UniProt Q07002+Q8ND76); experiment: CDK18/cyclinY(h) Millipore kinase panel; format: protein-complex assay; settings: Compound concentration 1.0 uM

Chain of Serine/threonine-protein kinase 17A (Homo sapiens) (Q9UEE5 whole entry): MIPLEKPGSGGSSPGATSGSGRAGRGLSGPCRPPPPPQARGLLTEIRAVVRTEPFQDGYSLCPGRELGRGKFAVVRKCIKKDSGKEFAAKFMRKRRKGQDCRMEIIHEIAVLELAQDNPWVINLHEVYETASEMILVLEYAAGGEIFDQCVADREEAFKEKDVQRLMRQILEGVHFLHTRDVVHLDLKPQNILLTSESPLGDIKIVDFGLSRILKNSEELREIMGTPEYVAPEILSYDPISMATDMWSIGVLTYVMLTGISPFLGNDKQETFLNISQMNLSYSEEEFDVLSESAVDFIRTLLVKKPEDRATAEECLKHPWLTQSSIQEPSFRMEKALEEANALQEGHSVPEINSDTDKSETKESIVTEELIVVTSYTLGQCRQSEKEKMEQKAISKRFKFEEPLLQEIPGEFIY

CC[C@@H](Nc1c(C#N)c(-c2ccc(-c3cccc(C)c3F)cc2)nc2cnccc12)C(=O)O [BAY-091]
active: inhibition [31] 98%
1500 nM: Ki [8]
inactive: inhibition [1] 14.4% | inhibition [2] 9.65% | inhibition [3] -3.58% | inhibition [4] 15.8% | inhibition [5] 12% | inhibition [6] -4.26% | inhibition [7] 8.41% | inhibition [9] 4.64% | inhibition [10] 6.22% | inhibition [11] 9.54% | inhibition [12] -5.39% | inhibition [13] 5.28% | inhibition [14] -1.59% | inhibition [15] 10.2% | inhibition [16] 0.07% | inhibition [17] 5.44% | inhibition [18] 4.22% | inhibition [19] 35.8% | inhibition [20] 7.84% | inhibition [21] 31% | inhibition [22] 6.61% | inhibition [23] 4.32% | inhibition [24] 22.3% | inhibition [25] 7.39% | inhibition [26] 11.3% | inhibition [27] 5.05% | inhibition [28] 6.43% | inhibition [29] 0.09% | inhibition [30] 5.32% | inhibition [32] 3% | inhibition [33] 3.74% | inhibition [34] 0.91% | inhibition [35] 2.41% | inhibition [36] 0.08% | inhibition [37] 5.8% | inhibition [38] 0.49% | inhibition [39] 1% | inhibition [40] 10.7% | inhibition [41] -3.68% | inhibition [42] -4.67% | inhibition [43] 18.1% | inhibition [44] 21.5% | inhibition [45] 10.8% | inhibition [46] 10.9% | inhibition [47] -2.13% | inhibition [48] 10.6%
